Here are results for six molecules from patent US20150152101A1, “ACTIVE COMPOUNDS FOR COMBATING GREASY SKIN” (L'OREAL, priority 2012, published 2015).

Common to all, as to assay type: cell-based
One assay deals with Ki67. The experiment in a line: Ki67 immunolabelling of treated Episkin reconstructed epidermis. The conditions noted are these: for Ki67: Episkin, systemic treatment over 5 days. On the procedure: (§1) The samples of reconstructed epidermis, received from the company Episkin at six days of reconstruction, were recultured as soon as received in 3.5 ml of differentiation medium (Episkin™ medium) under insert (in immersion) for 48 hours in an incubator (37° C., 5% CO2).
(§2) The epidermis samples were then placed in contact with the test compounds systemically. The Episkin™ differentiation culture medium is changed for a differentiation medium containing the test compounds with 0.1% of final DMSO vehicle. The epidermis samples were recultured in an incubator for 48 hours. A new systemic treatment is performed for a further 72 hours of culture in the incubator.
(§3) For the treatment on Episkin™, each test compound was prepared extemporaneously by weighing out and dissolving at 10 mM in DMSO, and was then used to treat 3 samples of reconstructed epidermis. […] The positive controls used were vitamin D3, retinol and calcipotriol (a vitamin D3 analogue).
(§4) The epidermis samples were collected (3 epidermis samples per treatment) for histological analysis and protein extracts (the same reconstructed epidermis is used for the histological study and the protein extract).
The epidermis samples were included in OCT for freezing in liquid nitrogen and then stored at −80° C. The blocks obtained were sliced using a cryostat to a thickness of 7 μm, and the slices were dried and stored at −20° C. while awaiting immunolabelling.
The marker chosen for the immunolabellings is Ki67, which affords information regarding a possible modification of the cell proliferation in the basal layer.

The subject of assay [1] is Episkin™ reconstructed epidermis. Nature of the assay: HES morphological observation of treated Episkin reconstructed epidermis. To be noted: systemic treatment over 5 days. On the procedure:
as §1, §2, §3, §4
The morphological control of the treated reconstructed epidermis samples was performed by staining with HES (haematoxylin-eosin-saffron) according to a standard protocol on histological slices of the samples included in paraffin (toluene bath: three times 15 minutes; 100° alcohol baths: twice for 1 minute; 95° alcohol baths: 1 minute; rinsing in water baths; haematoxylin bath: once for 2 minutes; rinsing in water baths; short dipping in a hydrochloric acid bath; rinsing in water; eosin bath: once for 1 minute; rinsing in water; short dipping in a 100° alcohol bath; saffron bath (5 minutes); short dipping in a 100° alcohol bath; toluene bath: three times for 2 minutes).

A further assay relates to corneodesmosin. Nature of the assay: Western blot of corneodesmosin in extracts of treated Episkin reconstructed epidermis. The conditions noted are these: systemic treatment over 5 days, grade relative to reference, generally for the highest concentration used (tested 1 and 10 μM), (*) = most active. On the procedure: as §1, §2
For the treatment on Episkin™, each test compound was prepared extemporaneously by weighing out and dissolving at 10 mM in DMSO, and was then used to treat 3 samples of reconstructed epidermis. Furthermore, each test compound was used in a proportion of 1 and 10 μM final in the culture medium (0.1% DMSO final). The positive controls used were vitamin D3, retinol and calcipotriol (a vitamin D3 analogue).
The epidermis samples were collected (3 epidermis samples per treatment) for histological analysis and protein extracts (the same reconstructed epidermis is used for the histological study and the protein extract). […]

Where [2] appears, read: grade relative to reference, generally for the highest concentration used (tested 1 and 10 μM), (*) = most active.

With `Cn1c2c(c(=O)n(C)c1=O)C(c1ccc(O)cc1)C1=C(N2)c2ccccc2C1=O` (centres unmarked) [Compound (5)], the “Ki67 labelling (FIG. 2)” value in the assay on Ki67 (Episkin treated in the absence and presence of compound, result in words) is given as “marked, or even occasionally total, decrease of the Ki67 labelling”.
In the assay on Ki67 (100 μM), `CC1=C(/C=C/C(C)=C/C=C/C(C)=C/CO)C(C)(C)CCC1` [Retinol] displayed a Ki67 of 0. Further, the HES in assay [1] (100 μM) is 0.
`C=C1CC[C@H](O)C/C1=C/C=C1\CCC[C@]2(C)[C@@H]([C@H](C)CCCC(C)C)CC[C@@H]12` [Vitamin D3] displayed an HES in assay [1] (setting [2]) of 0. Moreover, the CDSN in the assay with corneodesmosin came to 0.
In the case of `Cn1c2c(c(=O)n(C)c1=O)C(c1cccc(O)c1)C1=C(N2)c2ccccc2C1=O` (centres unmarked) [Compound (2)], in the assay on Ki67 (grade relative to reference, generally for the highest concentration used (tested 1 and 10 μM)), the Ki67 is recorded as 0.
In the case of `COc1cccc(C2C3=C(Nc4c2c(=O)n(C)c(=O)n4C)c2ccccc2C3=O)c1` (centres unmarked) [Compound (1)], the CDSN result in the assay on corneodesmosin is “++ (*)”.
`COc1cc(C2C3=C(Nc4c2c(=O)n(C)c(=O)n4C)c2ccccc2C3=O)cc(OC)c1O` (centres unmarked) [Compound (6)]: the HES entry in assay [1] (setting [2]) is “++ (*)”.
